This is an account of results in patent US20230339949A1, “HETEROCYCLIC SUBSTITUTED FUSED y-CARBOLINE DERIVATIVE, PREPARATION METHOD THEREFOR, INTERMEDIATE THEREOF AND USE THEREOF” (SHUJING BIOPHARMA CO., LTD, priority 2020, published 2023).

For data set [1], the system named is DOI-induced head-shaking behavior. The data set is described as follows: DOI-induced head-shaking behavior in mice. It counts as in vivo, ICR mice. The settings on record: Mus musculus; male ICR mice, single gavage dose 1 h before DOI 1 mg/kg i.p., head-shakes counted 0-20 min; read-out: ED50 (half effective dose). As for the experimental part:
The efficacy of the compounds of the present disclosure was evaluated by the mice model of head-shaking behavior induced by intraperitoneal injection of (±) DOI (a hallucinogenic agent usually used to replicate anti-schizophrenic animal model).
Experimental animals: ICR mice, male, 8 mice/group, Spelford (Beijing) Biotechnology Co., Ltd.
Preparation of drug: the test compounds were taken, and solvent was added, and ultrasonication was performed.
Administration route and method: oral gavage administration, 10 mL/kg (body weight).
(§1) Administration frequency and duration: single dose.
Animals were stratified by body weight and then randomly divided into blank group, model group, and administration groups, and detailed information of administration is shown in the following table.
Mice were stratified according to body weight and then randomly divided into model group, blank group and each administration group. One hour after the animals were gavage administration of the solvent or drugs, they were placed in a beaker (13 cm in diameter, 19 cm in height) with fresh padding, and the model drug DOI was injected intraperitoneally at a dose of 1 mg/kg. The times of head-shaking were recorded within 0-20 minutes after DOI was injected intraperitoneally.
Head-shaking behavior is defined as rapid rotational twitch of mouse's head or wet dog-like shaking, which should be different from normal hair grooming or inquiry behavior.
The experimental data were expressed as x±SD, and SPSS statistical software was used to test the homogeneity of variance. If the variance was homogeneous, single factor analysis of variance was performed, and Dunnett t test is used for pairwise comparison. The ED50 was calculated by nonlinear fitting with GraphPad Primis5 software.

Data set [2] can be described thus: PK test on ICR mice. The settings on record: mouse; male ICR mice, oral gavage, 5 mg/kg single dose, plasma. It counts as in vivo. The protocol:
Male ICR mice were administered by oral gavage administration, and blood concentration of the compound of the present disclosure in mice was measured, and PK parameters were calculated, and the pharmacokinetics of the compound of the present disclosure was evaluated.
Preparation of drug: The test compound was taken, and physiological saline was added, and ultrasonication was performed.
Administration route and dosage: administered by oral gavage, administration dosage: 5 mg/kg, administration volume: 10 mL/kg.
as §1
ICR mice were stratified by body weight and then randomly grouped into 3 mice per group, and fasted overnight before the experiment. After oral gavage administration, at 0, 0.033, 0.083, 0.5, 1, 2, 4, 6 and 8 hours, […] of blood was collected from the mandibular vein or saphenous vein of mice and put into sample tubes containing the anticoagulant sodium heparin, and the sample tube was placed in wet ice, centrifuged at 4 000 r·min^−1 for 10 minutes, and the plasma was separated and cryopreserved in a refrigerator at −80° C. for testing.
The blood concentration-time data of the compound of the present disclosure measured by gavage administration were substituted into Winnonlin 8.2 program to calculate the main pharmacokinetic parameters. Tmax and Cmax were measured values, AUC0-t and AUC0-∞ values were calculated by trapezoidal method, and t1/2 was calculated by the concentration point at the end of elimination phase via semi-logarithmic drawing method.

Broadly, the ED50 is the midpoint of the dose-response relation. Usually AUC(0-inf) stands for total exposure, with the tail of the curve extrapolated. Low readings indicate less exposure, high ones more exposure. One may read the AUC(0-t) as exposure summed from dosing to a finite time, without extrapolation to infinity. For orientation: Cmax means the highest concentration seen after dosing. A word on the Tmax: it is the time at which the peak concentration occurs. One may read the half-life as the time in which the quantity being followed falls by half. Take `CN1C(=O)CN2c3c1cccc3[C@]1(C)CN(CCCC(=O)c3ccc(F)cc3)CC[C@H]21` [Embodiment 1-A, (6bR,10aS)-8-(4-(4-fluorophenyl)-4-oxobutyl)-3,6b-dimethyl-6b,7,8,9,10,10a-hexahydro-1H-pyrido[3′,4′:4,5]pyrrolo [1,2,3-de]quinoxalin-2(3H)-one]: the 50% effective dose (ED50) in data set [1] amounted to 0.024 mg/kg. Moreover, in data set [2], the AUC(0-inf) was 190 ng·h/mL, the AUC(0-t) was determined as 155 ng·h/mL, the Cmax was 109 ng/mL and the Tmax amounted to 0.17 h. The same molecule had a half-life in data set [2] of 3.14 h.

Regarding `CN1CCN2c3c(cccc31)[C@@H]1CN(CCCC(=O)c3ccc(F)cc3)CC[C@@H]12` [ITI-007, Lumateperone, reference compound], in data set [2], the total exposure AUC(0-inf) was found to be 59.1 ng·h/mL, the exposure AUC(0-t) worked out at 39.3 ng·h/mL, the Cmax came out at 13.5 ng/mL and the time of peak concentration (Tmax) was 0.28 h. In data set [2], this molecule showed a half-life of 5 h.
